Read-outs that look alike come from different tables or passages of the source. Starred links: 1 amine or outer side, 2 acyl side, 3 side chain; linkers in the order of their positions; H or OH if unused. Positions of bridges follow the written chain, without caps; N, C: chain ends. Non-standard residues stand in square brackets, D forms with d. Chains are numbered I, II in the order given. No end group written: not given here. ξ: configuration not given here. *: point of attachment. X1 = O=C(CCOCCOCCOCCN(CCOCCOCCOCCn1cc(CCC(=O)[*:2])nn1)CCOCCOCCOCCn1cc(CCC(=O)[*:3])nn1)[*:1]; X3 = O=C(CCc1cn(CCOCCOCCOCCN(CCOCCOCCOCCC(=O)[*:3])CCOCCOCCOCCn2cc(CCC(=O)[*:2])nn2)nn1)[*:1]; TATA = O=C(CC[*:1])N1CN(C(=O)CC[*:2])CN(C(=O)CC[*:3])C1; ξDip = NC(C(=O)O)C(c1ccccc1)c1ccccc1; Hyp = O=C(O)[C@@H]1C[C@@H](O)CN1; hArg = N=C(N)NCCCC[C@H](N)C(=O)O; tBuAla = CC(C)(C)C[C@H](N)C(=O)O; Cba = N[C@@H](CC1CCC1)C(=O)O; Nle = CCCC[C@H](N)C(=O)O; Pent4ynoyl = C#CCCC(=O)*; ξP = O=C(O)C1CCCN1
Assays:
[1] = Pharmacokinetics in SD rats; assay type: in vivo; conditions: rat; for half-life: iv, read-out: T1/2 (converted); for clearance: read-out: Clp; for Vd: read-out: Vdss
Procedure: (§1) Male SD Rats were dosed with each heterotandem Bicycle peptide complex formulated in 25 mM Histidine HCl, 10% sucrose pH 7 by IV bolus or IV infusion (15 minutes). Serial bleeding (about 80 μL blood/time point) was performed via submandibular or saphenous vein at each time point. All blood samples were immediately transferred into prechilled microcentrifuge tubes containing 2 μL K2-EDTA (0.5M) as anti-coagulant and placed on wet ice. Blood samples were immediately processed for plasma by centrifugation at approximately 4° C., 3000 g. The precipitant including internal standard was immediately added into the plasma, mixed well and centrifuged at 12,000 rpm, 4° C. for 10 minutes. The supernatant was transferred into pre-labeled polypropylene microcentrifuge tubes, and then quick-frozen over dry ice. The samples were stored at […] or below as needed until analysis. 7.5 μL of the supernatant samples were directly injected for LC-MS/MS analysis using an Orbitrap Q Exactive in positive ion mode to determine the concentrations of analyte. Plasma concentration versus time data were analyzed by non-compartmental approaches using the Phoenix WinNonlin 6.3 software program. C0, CI, Vdss, T½, AUC(0-last), AUC(0-inf), MRT(0-last), MRT(0-inf) and graphs of plasma concentration versus time profile were reported.

MC38 tumors = assay: Anti-tumor activity of EphA2/CD137 complexes in syngeneic MC38 tumor model; assay type: in vivo, C57BL/6J-hCD137 mice; conditions: day 28
Procedure: 6-8 weeks old C57BL/6J-hCD137 female mice were inoculated in the flank with 1×10^6 syngeneic MC38 cells. When tumors reached 76 mm^3 size on average, mice were randomized to receive vehicle or BCY12491 (intraperitoneal administration). BCY12491 was administered (n=6 mice/treatment cohort) at either 5 mg/kg or 15 mg/kg either daily (QD) or every three days (Q3D). QD dosed mice received 22 doses of BCY12491 and Q3D dosed mice received 8 doses of BCY12491. Tumor growth was monitored by caliper measurements until day 73 after treatment initiation. The results of this experiment may be seen in FIG. 9 where it can be seen that the effect of BCY12491 on tumor growth becomes apparent in the first two weeks of the dosing period reducing the tumor growth and causing reduction of volumes of many of the treated tumors. By day 41, 15 out of 24 BCY12491 treated animals had completely responded to the treatment and had no palpable tumors left.
6-8 week old female C57BL/6J-hCD137 mice [B-hTNFRSF9(CD137) mice; Biocytogen] were implanted subcutaneously with 1×10^6 MC38 cells. Mice were randomized into treatment groups (n=6/cohort) when average tumor volumes reached around 76 mm^3 and were treated with daily doses of vehicle (25 mM histidine, 10% sucrose, pH7). BCY12491 treatment was conducted at two different dose levels (5 and 15 mg/kg) and two different dosing schedules (QD: daily; Q3D: every three days). Animals received either 22 QD doses or 8 Q3D doses intraperitoneally (ip). Tumor growth was monitored until tumor reached volumes over 2000 mm^3 or until 73 days after treatment initiation. After Day 73, 5 complete responder animals were re-challenged with MC38 tumor cell implantation alongside with 5 naïve C57BL/6J-hCD137 mice. Tumor growth was monitored for 20 days.
(§2) 6-8 week old female C57BL/6J-hCD137 mice [B-hTNFRSF9(CD137) mice; Biocytogen] were implanted subcutaneously with 1×10^6 MC38 cells. Mice were randomized into treatment groups (n=6/cohort) when average tumor volumes reached around 92 mm^3 and were treated intravenously with Q3D doses of vehicle (25 mM histidine, 10% sucrose, pH7), 15 mg/kg of BCY12730, BCY12723 or BCY12491 (7 Q3D doses). Tumor growth was monitored for 28 days or until tumors exceeded 2000 mm^3.
as §2, with “76” for “92”, “twice weekly (BIW)” for “Q3D”, “5” for “15”, “BCY13048, BCY13050,” for “BCY12730, BCY12723”, “(6 BIW” for “(7 Q3D”

human PBMCs = assay: Human PBMC co-culture cytokine secretion assay with EphA2-expressing tumor cells (MC38, HT-1080, HT29); assay type: cell-based
Procedure: […] MC38 were cultured in Dulbecco's Modified Eagle Medium supplemented with 10% heat inactivated Fetal Bovine Serum (FBS), 1× Penicillin/Streptomycin, 10 mM HEPES, and 2 mM L-Glutamine (referred to as R10 medium). Frozen PBMCs from healthy human donors were thawed and washed once in room temperature PBS with benzonase, and then resuspended in RPMI supplemented with 10% heat inactivated Fetal Bovine Serum (FBS), 1× Penicillin/Streptomycin, 10 mM HEPES, and 2 mM L-Glutamine (herein referred to as R10 medium). 100 μl of PBMCs (1,000,000 PBMCs/ml) and 100 μl of tumor cells (100,000 tumor cells/ml) (Effector:Target cell ratio (E:T) 10:1) were plated in each well of a 96 well flat bottom plate for the co-culture assay. 100 ng/ml of soluble anti-CD3 mAb (clone OKT3) was added to the culture on day 0 to stimulate human PBMCs. Test, control compounds, or vehicle controls were diluted in R10 media and 50 μL was added to respective wells to bring the final volume per well to 250 μL. Plates were covered with a breathable film and incubated in a humidified chamber at 37° C. with 5% CO2 for two days. […] Briefly, the standards and samples were added to a black 96 well plate. Microparticle cocktail (provided in Luminex kit, R&D Systems) was added and shaken for 2 hours at room temperature. The plate was washed 3 times using a magnetic holder. Biotin cocktail was then added to the plate and shaken for 1 hour at RT. The plate was washed 3 times using a magnetic holder. Streptavidin cocktail was added to the plate and shaken for 30 minutes at RT. The plates were washed 3 times using a magnetic holder, resuspended in 100 μL of wash buffer, shaken for 2 minutes at RT, and read using the Luminex 2000. Raw data were analyzed using built-in Luminex software to generate standard curves and interpolate protein concentrations, all other data analyses and graphing were performed using Excel and Prism software. Data represents one study with three independent donor PBMCs tested in experimental duplicates.
Similarly, PBMCs from healthy donors were co-cultured with EphA2 expressing cancer cells (MC38 and HT-1080) at a ratio of 5:1 in presence of anti-CD3 and BCY13272. […]

CD137 = CD137 (Homo sapiens, UniProt Q07011); assay: CD137 reporter assay (Promega, Jurkat cells) in co-culture with EphA2-expressing tumor cells (A549, PC3, HT29); assay type: cell-based; design: host or cells: Jurkat reporter cells; conditions: for Emax (fold induction over background): CD137 reporter coculture assay with PC3 tumor cells; for EC50: EC50, CD137 reporter coculture assay with PC3 tumor cells
Summary of the method: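 Promega CD137 luciferase reporter Jurkat cells co-cultured with tumor cells (RKO for PD-L1; A549, PC3, HT29 for EphA2) and serially diluted test articles in RPMI + 1% FBS, 6 h at 37° C. Bio-Glo luminescence as fold change over cells alone; log(agonist)-response fit gives EC50 (nM) and max fold induction.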

[2] = Pharmacokinetics in cynomolgus monkey; assay type: in vivo; conditions: in vivo, IV infusion (15 min), 1 mg/kg
Procedure: Serial bleeding (about 1.2 ml blood/time point) was performed from a peripheral vessel from restrained, non-sedated animals at each time point into a commercially available tube containing Potassium (K2) EDTA*2H2O (0.85-1.15 mg) on wet ice and processed for plasma. Samples were centrifuged (3,000×g for 10 minutes at 2 to 8° C.) immediately after collection. 0.1 mL plasma was transferred into labelled polypropylene micro-centrifuge tubes. 5-fold of the precipitant including internal standard 100 ng/mL Labetalol & 100 ng/mL dexamethasone & 100 ng/mL tolbutamide & 100 ng/mL Verapamil & 100 ng/mL Glyburide & 100 ng/mL Celecoxib in MeOH was immediately added into the plasma, mixed well and centrifuged at 12,000 rpm for 10 minutes at 2 to 8° C. Samples of supernatant were transferred into the pre-labeled polypropylene microcentrifuge tubes, and frozen over dry ice. The samples were stored at −60° C. or below until LC-MS/MS analysis. An aliquot of 40 μL calibration standard, quality control, single blank and double blank samples were added to the 1.5 mL tube. Each sample (except the double blank) was quenched with 200 μL IS1 respectively (double blank sample was quenched with 200 μL MeOH with 0.5% tritonX-100), and then the mixture was vortex-mixed well (at least 15 s) with vortexer and centrifuged for 15 min at 12000 g, 4° C. A 10 μL supernatant was injected for LC-MS/MS analysis using an Orbitrap Q Exactive in positive ion mode to determine the concentrations of analyte. Plasma concentration versus time data were analyzed by non-compartmental approaches using the Phoenix WinNonlin 6.3 software program. C0, CI, Vdss, T½, AUC(0-last), AUC(0-inf), MRT(0-last), MRT(0-inf) and graphs of plasma concentration versus time profile were reported.

[3] = Pharmacokinetics in CD1 mice; assay type: in vivo, CD-1 mice; conditions: mouse, in vivo; mice, after IP injection; read-out: circulating plasma half-life (converted)
Procedure: as §1, with “Serial” for “Male SD Rats were dosed with each heterotandem Bicycle peptide complex formulated in 25 mM Histidine HCl, 10% sucrose pH 7 by IV bolus or IV infusion (15 minutes). Serial”

[4] = male, SD, plasma, IV Inf (15 minutes)
[5] = human PBMC-MC38 co-culture, Donor 1, 72 h incubation, read-out: Donor 1 EC50 of IFNγ secretion
[6] = human PBMC-MC38 co-culture, Donor 2, 72 h incubation, read-out: Donor 2 EC50 of IFNγ secretion

Sequence of CD137 (Q07011 24-255): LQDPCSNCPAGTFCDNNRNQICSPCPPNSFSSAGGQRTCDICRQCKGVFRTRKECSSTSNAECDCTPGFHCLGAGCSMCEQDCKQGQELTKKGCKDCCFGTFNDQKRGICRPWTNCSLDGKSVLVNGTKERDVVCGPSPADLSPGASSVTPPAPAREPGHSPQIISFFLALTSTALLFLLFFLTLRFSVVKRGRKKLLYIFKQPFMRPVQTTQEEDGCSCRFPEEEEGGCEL

Substance	half-life [1, 4]	clearance [1, 4]	Vd [1, 4]	complete responses (MC38 tumors; 5 mg/kg IV BIW, 6 doses)	EC50 (human PBMCs; [5])	EC50 (human PBMCs; [6])	Emax (fold induction over background) (CD137)	EC50 (CD137)	also measured
I: A[hArg]DC[Hyp][Cba]VN[ξP]LCLHP[dD]W[hArg]C-NH2 / II: Ac-C[tBuAla]PE[dK]PYCFADPY[Nle]CA-NH2 / III: Ac-C[tBuAla]PE[dK]PYCFADPY[Nle]CA-NH2 (linker I:4-I:11-I:18, II:1-II:8-II:15, III:1-III:8-III:15 via TATA; linker I:N-II:5-III:5 via X1) [BCY13050]	3.3 h	11 mL/min/kg	1.4 L/kg	3 out of 6	0.38 nM	0.19 nM	42.46	0.09 nM	
BCY12723: EphA2:CD137 1:2; BCY9594 + 2x BCY12143; linker N-(acid-PEG3)-N-bis(PEG3-azide) (peptide 1 A[hArg]DC[Hyp]LVNPLCLHP[dD]W[hArg]C; peptide 2 Ac-C[tBuAla]EE[dK](Pent4ynoyl)PYCFADPY[Nle]C; linker I:4-I:11-I:18, II:1-II:8-II:15 via TATA; not fully specified (bridges); also: chain 2 present twice on linker, EphA2:CD137 1:2)					0.13 nM	0.095 nM			complete responses (MC38 tumors; 15 mg/kg IV Q3D, 7 doses): 2 out of 6; Fold Improvement over BCY9173, EC50 (nM) (CD137; co-culture with PC3): 2.2 fold; Fold Improvement over Emax (CD137; co-culture with PC3, versus BCY9173): 1.8 fold
I: Ac-C[tBuAla]PE[dK]PYCFADPY[Nle]CA-NH2 / II: Ac-C[tBuAla]PE[dK]PYCFADPY[Nle]CA-NH2 / III: C[Hyp]LVNPLCL[ξDip]P[dD]WTC-NH2 (linker I:1-I:8-I:15, II:1-II:8-II:15, III:1-III:8-III:15 via TATA; linker I:5-II:5-III:N via X3) [BCY13048]	3.8 h	11 mL/min/kg	1.2 L/kg	5 out of 6			48.35	0.09 nM	EC50 (human PBMCs; human PBMC-MC38 co-culture, Donor 1, 48 h incubation, read-out: Donor 1 EC50 of IFNγ secretion): 0.3 nM; EC50 (human PBMCs; human PBMC-MC38 co-culture, Donor 2, 48 h incubation, read-out: Donor 2 EC50 of IFNγ secretion): 0.24 nM
I: A[hArg]DC[Hyp]LVNPLCLHP[dD]W[hArg]C-NH2 / II: Ac-C[tBuAla]PE[dK]PYCFADPY[Nle]CA-NH2 / III: Ac-C[tBuAla]PE[dK]PYCFADPY[Nle]CA-NH2 (linker I:4-I:11-I:18, II:1-II:8-II:15, III:1-III:8-III:15 via TATA; linker I:N-II:5-III:5 via X1) [BCY12491]									half-life ([1]; in vivo, IV Bolus): 1.3 h; clearance ([1]; in vivo, IV Bolus): 20 mL/min/kg; Vd ([1]; in vivo, IV Bolus): 1.6 L/kg; clearance ([2]; read-out: Clp): 3 mL/min/kg; half-life ([2]; read-out: T1/2 (converted)): 3.2 h; Vd ([2]; read-out: Vdss): 0.36 L/kg; half-life [3]: 2.5 h; EC50 (human PBMCs; MC38 co-culture, donor 228711, read-out: EC50 of IFN-γ cytokine secretion): 0.085 nM; EC50 (human PBMCs; MC38 co-culture, donor 228769, read-out: EC50 of IFN-γ cytokine secretion): 0.034 nM
